ChEMBL document CHEMBL3885861, “Open TG-GATES”

Organism: Rattus norvegicus
Assay: Open TG-GATES - Regimen: Single
Assay type: toxicity, organism-based, Sprague-Dawley
Parameters: regimen Single, gender Male, age 6 weeks
Settings: in vivo, po, 1000 mg/kg, route gavage, dose level Middle; for APTT / Bas / Eos / Fbg / Hb / Ht / Lym / MCH / MCHC / MCV / Mono / Neu / PT / Plat / RBC / Ret / WBC: tissue Blood; for KIDNEY_L / KIDNEY_R / KIDNEY_TOTAL: tissue Kidney; for LIVER: tissue Liver; for A/G / ALP / ALT / AST / BUN / CRE / Ca / Cl / DBIL / GLC / IP / K / LDH / Na / PL / RALB / TBIL / TC / TG / TP / gamma-GTP: tissue Plasma

Compound: COc1ccc(O)c(C(C)(C)C)c1.COc1ccc(O)cc1C(C)(C)C [BUTYLATED HYDROXYANISOLE]
- TERMINAL_BW (3 h): 206 g
- APTT (3 h): 14.7 s
- Bas (3 h): 0.2%
- Eos (3 h): 0.5%
- Fbg (3 h): 270.8 mg/dL
- Hb (3 h): 13.5 g/dL
- Ht (3 h): 39.4%
- Lym (3 h): 79.2%
- MCH (3 h): 20.8 pg
- MCHC (3 h): 34.3%
- MCV (3 h): 60.8 fL
- Mono (3 h): 1.9%
- Neu (3 h): 17.3%
- PT (3 h): 11.6 s
- Plat (3 h): 142.9 x10_4/uL
- RBC (3 h): 649 x10_4/ul
- Ret (3 h): 7.8%
- WBC (3 h): 77.2 x10_2/uL
- KIDNEY_L (3 h): 0.9 g
- KIDNEY_R (3 h): 0.9 g
- KIDNEY_TOTAL (3 h): 1.8 g
- LIVER (3 h): 8.6 g
- A/G (3 h): 0.8
- ALP (3 h): 1827.4 IU/L
- ALT (3 h): 53.4 IU/L
- AST (3 h): 77.8 IU/L
- BUN (3 h): 10.6 mg/dL
- CRE (3 h): 0.2 mg/dL
- Ca (3 h): 11.1 mg/dL
- Cl (3 h): 103.6 meq/L
- DBIL (3 h): 0.028 mg/dL
- GLC (3 h): 179.2 mg/dL
- IP (3 h): 10.3 mg/dL
- K (3 h): 3.5 meq/L
- LDH (3 h): 60.8 IU/L
- Na (3 h): 142.6 meq/L
- PL (3 h): 150.6 mg/dL
- RALB (3 h): 2.6 g/dL
- TBIL (3 h): 0.084 mg/dL
- TC (3 h): 85.2 mg/dL
- TG (3 h): 76.4 mg/dL
- TP (3 h): 5.8 g/dL
- gamma-GTP (3 h): 1 IU/L
- TERMINAL_BW (6 h): 201.1 g
- APTT (6 h): 15.6 s
- Bas (6 h): 0.2%
- Eos (6 h): 0.8%
- Fbg (6 h): 279.6 mg/dL
- Hb (6 h): 13.9 g/dL
- Ht (6 h): 40.4%
- Lym (6 h): 72.6%
- MCH (6 h): 21.2 pg
- MCHC (6 h): 34.3%
- MCV (6 h): 61.8 fL
- Mono (6 h): 1.6%
- Neu (6 h): 24.1%
- PT (6 h): 12.7 s
- Plat (6 h): 136.4 x10_4/uL
- RBC (6 h): 654.6 x10_4/ul
- Ret (6 h): 7.3%
- WBC (6 h): 78.7 x10_2/uL
- KIDNEY_L (6 h): 0.9 g
- KIDNEY_R (6 h): 0.8 g
- KIDNEY_TOTAL (6 h): 1.7 g
- LIVER (6 h): 7.5 g
- A/G (6 h): 0.9
- ALP (6 h): 1472.6 IU/L
- ALT (6 h): 49.4 IU/L
- AST (6 h): 74 IU/L
- BUN (6 h): 9.6 mg/dL
- CRE (6 h): 0.2 mg/dL
- Ca (6 h): 10.9 mg/dL
- Cl (6 h): 108.4 meq/L
- DBIL (6 h): 0.034 mg/dL
- GLC (6 h): 166 mg/dL
- IP (6 h): 9.8 mg/dL
- K (6 h): 4 meq/L
- LDH (6 h): 54.8 IU/L
- Na (6 h): 142.6 meq/L
- PL (6 h): 139.4 mg/dL
- RALB (6 h): 2.6 g/dL
- TBIL (6 h): 0.09 mg/dL
- TC (6 h): 81.4 mg/dL
- TG (6 h): 68.6 mg/dL
- TP (6 h): 5.7 g/dL
- gamma-GTP (6 h): 1 IU/L
- TERMINAL_BW (9 h): 199.9 g
- APTT (9 h): 16.6 s
- Bas (9 h): 0.2%
- Eos (9 h): 0.9%
- Fbg (9 h): 285 mg/dL
- Hb (9 h): 13.6 g/dL
- Ht (9 h): 39.7%
- Lym (9 h): 71.9%
- MCH (9 h): 21.1 pg
- MCHC (9 h): 34.4%
- MCV (9 h): 61.6 fL
- Mono (9 h): 1.6%
- Neu (9 h): 24.9%
- PT (9 h): 13.2 s
- Plat (9 h): 138.7 x10_4/uL
- RBC (9 h): 643.8 x10_4/ul
- Ret (9 h): 7.6%
- WBC (9 h): 65.3 x10_2/uL
- KIDNEY_L (9 h): 0.9 g
- KIDNEY_R (9 h): 0.8 g
- KIDNEY_TOTAL (9 h): 1.7 g
- LIVER (9 h): 7.5 g
- A/G (9 h): 0.8
- ALP (9 h): 1561.2 IU/L
- ALT (9 h): 41.6 IU/L
- AST (9 h): 72.8 IU/L
- BUN (9 h): 7.6 mg/dL
- CRE (9 h): 0.2 mg/dL
- Ca (9 h): 11 mg/dL
- Cl (9 h): 107.8 meq/L
- DBIL (9 h): 0.03 mg/dL
- GLC (9 h): 154.8 mg/dL
- IP (9 h): 10.3 mg/dL
- K (9 h): 4 meq/L
- LDH (9 h): 51.4 IU/L
- Na (9 h): 142.8 meq/L
- PL (9 h): 135.2 mg/dL
- RALB (9 h): 2.7 g/dL
- TBIL (9 h): 0.09 mg/dL
- TC (9 h): 78.2 mg/dL
- TG (9 h): 44.6 mg/dL
- TP (9 h): 5.9 g/dL
- gamma-GTP (9 h): 0.8 IU/L
- TERMINAL_BW (24 h): 209.5 g
- APTT (24 h): 16.1 s
- Bas (24 h): 0.2%
- Eos (24 h): 0.4%
- Fbg (24 h): 257 mg/dL
- Hb (24 h): 13.5 g/dL
- Ht (24 h): 39.5%
- Lym (24 h): 79.9%
- MCH (24 h): 20.8 pg
- MCHC (24 h): 34.1%
- MCV (24 h): 61 fL
- Mono (24 h): 2.3%
- Neu (24 h): 16.1%
- PT (24 h): 12.4 s
- Plat (24 h): 150.2 x10_4/uL
- RBC (24 h): 647.4 x10_4/ul
- Ret (24 h): 6.3%
- WBC (24 h): 89 x10_2/uL
- KIDNEY_L (24 h): 0.9 g
- KIDNEY_R (24 h): 0.9 g
- KIDNEY_TOTAL (24 h): 1.9 g
- LIVER (24 h): 9.4 g
- A/G (24 h): 0.9
- ALP (24 h): 1827.8 IU/L
- ALT (24 h): 46.2 IU/L
- AST (24 h): 75.8 IU/L
- BUN (24 h): 12.4 mg/dL
- CRE (24 h): 0.2 mg/dL
- Ca (24 h): 11.4 mg/dL
- Cl (24 h): 107.8 meq/L
- DBIL (24 h): 0.046 mg/dL
- GLC (24 h): 156.4 mg/dL
- IP (24 h): 8.3 mg/dL
- K (24 h): 4.3 meq/L
- LDH (24 h): 72 IU/L
- Na (24 h): 142.8 meq/L
- PL (24 h): 149 mg/dL
- RALB (24 h): 2.7 g/dL
- TBIL (24 h): 0.098 mg/dL
- TC (24 h): 84.2 mg/dL
- TG (24 h): 236.8 mg/dL
- TP (24 h): 5.8 g/dL
- gamma-GTP (24 h): 1 IU/L
